Experiments:
CRBN = target: T1, CRBN (Homo sapiens, UniProt Q96SW2); test: Cellular CRBN engagement assay (competition with dBET6, BRD4BD2-eGFP reporter); format: cell-based; settings: FIG. 1; for cell permeability (from cellular CRBN engagement): Flp-In 293 reporter cells; for IC50: competition with 100 nM dBET6, 5 h, Flp-In 293 cells expressing BRD4BD2-eGFP and mCherry
T1 construct: endogenous in cells; host or cells: Flp-In 293 cells stably expressing BRD4BD2-eGFP and mCherry
Protocol: BRD4BD2 was subcloned into mammalian pcDNA5/FRT Vector (Ampicillin and Hygromycin B resistant) modified to contain MCS-eGFP-P2A-mCherry. Stable cell lines expressing eGFP-protein fusion and mCherry reporter were generated using Flp-In™ 293 system. Plasmid (0.3 μg) and pOG44 (4.7 μg) DNA were preincubated in 100 μL of Opti-MEM™ I (Gibco™, Life Technologies™) media containing 0.05 mg/ml Lipofectamine 2000 (Invitrogen™) for 20 min and added to Flp-In™ 293 cells containing 1.9 ml of Dulbecco's Modified Eagle Medium (DMEM) media (Gibco™, Life Technologies™) per well in a 6-well plate format (Falcon, 353046). Cells were propagated after 48 h and transferred into a 10 cm^2 plate (Corning®, 430165) in DMEM media containing 50 μg/ml of Hygromycin B (Invitrogen™, REF 10687010) as a selection marker. Following 2-3 passage cycles, FACS (FACSAria™ II, BD) was used to enrich for cells expressing eGFP and mCherry.
Stable cells expressing the BRD4BD2-eGFP protein fusion and the mCherry reporter were seeded at a density of 1000-4000 cells/well in a 384-well plate with 50 μL per well of FluoroBrite™ DMEM media (Thermo Fisher Scientific, A18967) supplemented with 10% FBS a day before compound treatment. Compounds and 100 nM dBET6 were dispensed using a D300e Digital Dispenser (HP), normalized to 0.5% DMSO, and incubated with the cells for 5 h. The assay plate was imaged immediately using an acument High Content Imager (TTP Labtech) with 488 nm and 561 nm lasers in a […] grid per well format. The resulting images were analyzed using CellProfiler™ (Carpenter et al., Genome Biol. 7(10):R100 (2006)). A series of image analysis steps (an ‘image analysis pipeline’) was constructed. First, the red and green channels were aligned and cropped to target the middle of each well (to avoid analysis of the heavily clumped cells at the edges). A background illumination function was calculated for both red and green channels of each well individually and subtracted to correct for illumination variations across the 384-well plate from various sources of error. An additional step was then applied to the green channel to suppress the analysis of large auto fluorescent artifacts and enhance the analysis of cell specific fluorescence by way of selecting for objects under a given size (30 A.U.) and with a given shape (speckles). mCherry-positive cells were then identified in the red channel by filtering for objects 8-60 pixels in diameter and by using intensity to distinguish between clumped objects. […] The fraction of GFP-positive cells/mCherry-positive cells in each well was then calculated, and the green and red images were rescaled for visualization. […]

HDAC4 = HDAC4 (Homo sapiens, UniProt P56524); test: In vitro HDAC enzymatic assay (Reaction Biology); format: biochemical; design: purchased Reaction Biology (Devault, PA); settings: dose response, FIG. 2A-2B

| SMILES | cell permeability (from cellular CRBN engagement) (CRBN) | IC50 (CRBN) [µM] | inhibition of HDAC4 (HDAC4) |
| --- | --- | --- | --- |
| O=C1CCC(N2C(=O)c3cccc(NCCCCCCN4CCC(CNC(=O)c5cccc(-c6noc(C(F)(F)F)n6)c5)(c5nc(-c6ccccc6)cs5)CC4)c3C2=O)C(=O)N1 (stereo not drawn) [Compound 1] | cell permeable | 0.14 | inhibited |
| CCN(CCNc1cccc2c1C(=O)N(C1CCC(=O)NC1=O)C2=O)C[C@@H](C)NC(=O)c1ccc(-c2noc(C(F)(F)F)n2)cc1 (stereo partly drawn) [Compound 16, N-((2R)-1-((2-((2-(2,6-dioxopiperidin-3-yl)-1,3-dioxoisoindolin-4-yl)amino)ethyl)(ethyl)amino)propan-2-yl)-4-(5-(trifluoromethyl)-1,2,4-oxadiazol-3-yl)benzamide] | cell permeable | 6.98 | inhibited |

Reference: patent publication US20240246956A1, “CLASS IIA HISTONE DEACETYLASE (HDAC) DEGRADER LIGANDS AND METHODS OF USE THEREOF” (DANA-FARBER CANCER INSTITUTE, INC., priority 2021, published 2024)
